Results on 13 compounds are retold here after PubChem BioAssay (NCI).

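Interpolation was linear, between the two tested concentrations surrounding the appropriate level; five concentrations were tested over 48 hours in 96-well plates. Here, GI50 denotes the concentration required for 50% inhibition of growth. TGI marks complete inhibition of growth.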

Test systems include ACHN renal; HL-60(TB) leukemia; IGROV1 ovarian; KM12 colon; LOX IMVI melanoma; OVCAR-5 ovarian; OVCAR-8 ovarian; TK-10 renal; UO-31 renal.
Common to all, as to test: inhibition of tumour cell growth, NCI panel, 48 h

With `N#C/C(=C\c1ccccc1O)C(N)=O`, the TGI is above 100 µM with ACHN renal; 43.3 µM with HL-60(TB) leukemia; above 100 µM with IGROV1 ovarian; above 100 µM with KM12 colon; above 100 µM with LOX IMVI melanoma; above 100 µM in the experiment on OVCAR-5 ovarian. The TGI with OVCAR-8 ovarian, in the experiment with TK-10 renal and in the experiment on UO-31 renal was above 100 µM each time.

On to `O=C(NCCCCCCCCNC(=O)c1cnc2ccccc2n1)c1cnc2ccccc2n1`, for which the TGI in the experiment on ACHN renal, with HL-60(TB) leukemia, in the experiment with IGROV1 ovarian, in the experiment on KM12 colon, in the experiment on LOX IMVI melanoma and with OVCAR-5 ovarian was above 100 µM in each case. Besides, the TGI with OVCAR-8 ovarian, in the experiment on TK-10 renal and with UO-31 renal was above 100 µM throughout.

In the case of `CC1CC2C3CC(F)C4=CC(=O)C=CC4(C)C3(F)C(O)CC2(C)C1(O)C(=O)COC(=O)C(C)(C)C` (configuration not stated), the TGI in the experiment with ACHN renal, in the experiment on HL-60(TB) leukemia, in the experiment on IGROV1 ovarian, in the experiment on KM12 colon, with LOX IMVI melanoma and in the experiment with OVCAR-5 ovarian was above 100 µM throughout. In addition, the TGI with TK-10 renal and in the experiment with UO-31 renal was above 100 µM throughout.

On to `CCC(C)CN1C(=O)NC(C)(Cc2ccccc2)C1=O` (configuration not stated), for which the TGI in the experiment with ACHN renal, in the experiment with HL-60(TB) leukemia, in the experiment with KM12 colon, with LOX IMVI melanoma, in the experiment with OVCAR-5 ovarian and in the experiment with OVCAR-8 ovarian was above 100 µM each time. Moreover, the TGI in the experiment on TK-10 renal and in the experiment on UO-31 renal was above 100 µM in each case.

With `O=C(Nc1ccc(Cl)cc1Cl)c1ccc(NC2=C(Cl)C(=O)N(Cc3ccccc3)C2=O)cc1`, the GI50 with ACHN renal was 18.9 µM; with HL-60(TB) leukemia it was 2.5 µM; in the experiment with IGROV1 ovarian, 12.2 µM; in the experiment with KM12 colon, 21.1 µM; with LOX IMVI melanoma, 6.6 µM; in the experiment with OVCAR-8 ovarian, 12.8 µM. The GI50 was 25.5 µM in the experiment on TK-10 renal and 3.56 µM with UO-31 renal. In addition, the TGI is 33.7 µM in the experiment on ACHN renal; 9.01 µM in the experiment on HL-60(TB) leukemia; above 100 µM in the experiment with IGROV1 ovarian; 64.4 µM in the experiment on KM12 colon; 19.1 µM with LOX IMVI melanoma; 25.4 µM with OVCAR-8 ovarian. For the same compound, the TGI with TK-10 renal was 81.9 µM; with UO-31 renal, above 100 µM.

As for `COC(=O)Cc1cc(OC)c(OC)cc1Br`, the TGI with ACHN renal, in the experiment on HL-60(TB) leukemia, with KM12 colon, in the experiment on OVCAR-5 ovarian, in the experiment on OVCAR-8 ovarian and with TK-10 renal was above 100 µM in each case. The compound also gave a TGI with UO-31 renal above 100 µM.

Consider `CCCCCCCCCCCOC(=S)NC(C)C`, for which the TGI with ACHN renal is 35.9 µM; in the experiment on HL-60(TB) leukemia it was 39.1 µM; in the experiment with IGROV1 ovarian, 49.9 µM; with KM12 colon it was 37.7 µM; with LOX IMVI melanoma, 30.7 µM; with OVCAR-5 ovarian, 52.5 µM. The TGI in the experiment with OVCAR-8 ovarian amounted to 31.7 µM; in the experiment with TK-10 renal, 86.1 µM; in the experiment on UO-31 renal it was 32.2 µM.

For the compound `Cc1ccc(C(=O)O/N=C2/CCCC/C2=C\c2ccccc2)cc1`, the TGI in the experiment on ACHN renal was above 100 µM; with HL-60(TB) leukemia, 45.1 µM; in the experiment on IGROV1 ovarian, above 100 µM; in the experiment with KM12 colon, above 100 µM; in the experiment with LOX IMVI melanoma, 44.2 µM; in the experiment on OVCAR-5 ovarian it was above 100 µM. Besides, the TGI was above 100 µM in the experiment with OVCAR-8 ovarian, above 100 µM in the experiment with TK-10 renal and 31.5 µM in the experiment with UO-31 renal.

Turning to `COc1cc(CCc2cccnc2)cc(OC)c1OC`, the TGI in the experiment with ACHN renal, in the experiment with HL-60(TB) leukemia, with IGROV1 ovarian, in the experiment with KM12 colon, in the experiment with LOX IMVI melanoma and with OVCAR-5 ovarian was above 100 µM in each case. In addition, the TGI in the experiment on OVCAR-8 ovarian, in the experiment with TK-10 renal and in the experiment on UO-31 renal was above 100 µM each time.

Take `CCOc1ccc(NC(=O)CC2SC(=Nc3ccc(Cl)cc3)NC2=O)cc1` (configuration not stated): the TGI in the experiment with ACHN renal was above 100 µM; with HL-60(TB) leukemia, 75.4 µM; in the experiment with IGROV1 ovarian it was above 100 µM; in the experiment on KM12 colon, above 100 µM; in the experiment on LOX IMVI melanoma, above 100 µM; with OVCAR-5 ovarian, above 100 µM. Moreover, the TGI with OVCAR-8 ovarian, in the experiment with TK-10 renal and with UO-31 renal was above 100 µM each time.

For `CCC[CH2][Sn]([CH2]CCC)([O]C(=O)c1c(F)cccc1F)[O]C(=O)c1c(F)cccc1F`, the GI50 was 0.763 µM in the experiment with ACHN renal; 0.378 µM in the experiment on HL-60(TB) leukemia; 1.39 µM in the experiment with IGROV1 ovarian; 1.51 µM with KM12 colon; 0.353 µM in the experiment on LOX IMVI melanoma; 1.34 µM in the experiment on OVCAR-5 ovarian. Further, the GI50 was 1.18 µM in the experiment with OVCAR-8 ovarian, 0.956 µM with TK-10 renal and 1.31 µM in the experiment on UO-31 renal. Moreover, the TGI with ACHN renal was 2.01 µM; in the experiment on HL-60(TB) leukemia, above 100 µM; with IGROV1 ovarian, 3 µM; with KM12 colon, 2.83 µM; in the experiment with LOX IMVI melanoma it was 1.41 µM; in the experiment on OVCAR-5 ovarian, 2.61 µM. Further, the TGI with OVCAR-8 ovarian came to 2.41 µM; in the experiment with TK-10 renal, 2.13 µM; with UO-31 renal, 2.59 µM.

On to `N#Cc1cccc(N2C(=O)c3c(c(-c4ccccc4)c(-c4ccc(Sc5ccc(-c6c(-c7ccccc7)c7c(c(-c8ccccc8)c6-c6ccccc6)C(=O)N(c6cccc(C#N)c6)C7=O)cc5)cc4)c(-c4ccccc4)c3-c3ccccc3)C2=O)c1`, for which the TGI with ACHN renal, with HL-60(TB) leukemia, with IGROV1 ovarian, in the experiment on KM12 colon, in the experiment on LOX IMVI melanoma and in the experiment on OVCAR-5 ovarian was above 100 µM throughout. Moreover, the TGI in the experiment with OVCAR-8 ovarian, in the experiment on TK-10 renal and in the experiment on UO-31 renal was above 100 µM in each case.

Take `N=C(c1ccccc1)N(c1ccccc1)c1ccccc1`: the TGI in the experiment on HL-60(TB) leukemia, with KM12 colon, in the experiment with LOX IMVI melanoma, in the experiment on OVCAR-5 ovarian, in the experiment on OVCAR-8 ovarian and with TK-10 renal was above 100 µM in each case. The TGI with UO-31 renal was above 100 µM.
